Measured values reported in US7750006B2, “Phthalazinone derivatives” (Kudos Pharmaceuticals Limited, priority 2000, dated 2010).

system: HeLa cells; test: Dose Enhancing Factor: cell growth inhibition with bleomycin, SRB assay; format: cell-based; details: test compound 25 μM, bleomycin 0.5 μg/ml
Method: The Dose Enhancing Factor (DEF) is a ratio of the enhancement of cell growth inhibition elicited by the test compound in the presence of bleomycin compared to bleomycin alone. […] Bleomycin was used at a concentration of 0.5 μg/ml. The DEF was calculated from the formula:
[formula] where GrowthTC is cell growth in presence of the test compound; GrowthControl is cell growth of control cells; Growthbleo is cell growth in presence of bleomycin; and Growth(bleo+TC) is cell growth in presence of bleomycin and the test compound.
2,000 HeLa cells were seeded into each well of a flat-bottomed 96-well microtiter plate in a volume of 100 μl and incubated for 6 hours at 37° C. […] Cells were allowed to grow for a further 1 hour before the addition of bleomycin to either untreated cells or test compound treated cells. Cells untreated with either bleomycin or test compound were used as a control. Cells treated with test compound alone were used to assess the growth inhibition by the test compound.
Cells were left for a further 16 hours before replacing the media and allowing the cells to grow for a further 72 hours at 37° C. The media was then removed and the cells fixed with 100 μl of ice cold 10% (w/v) trichloroacetic acid. The plates were incubated at 4° C. for 20 minutes and then washed four times with water. Each well of cells was then stained with 100 μl of 0.4% (w/v) SRB in 1% acetic acid for 20 minutes before washing four times with 1% acetic acid. Plates were then dried for 2 hours at room temperature. The dye from the stained cells was solubilized by the addition of 100 μl of 10 mM Tris Base into each well.

SMILES | DEF (Dose Enhancing Factor)
O=c1[nH]nc(Cc2ccc(F)cc2)c2ccccc12 [Compound 132] | 2.3
CC(=O)Oc1cccc(Cc2n[nH]c(=O)c3ccccc23)c1 [Compound 179] | 1.4
Nc1cc(Cc2n[nH]c(=O)c3ccccc23)ccc1N1CCSCC1 [Compound 198] | 2.3
O=c1[nH]nc(CSc2ccc(Cl)cc2)c2ccccc12 [Compound 90] | 1.8
O=C(Nc1ccc(F)cc1)Nc1cccc(Cc2n[nH]c(=O)c3ccccc23)c1 [Compound 216] | 1.3
O=c1[nH]nc(Cc2cccc(C(F)(F)F)c2)c2ccccc12 [Compound 191] | 1.5
O=c1[nH]nc(Cc2ccc(N3CCCC3)c([N+](=O)[O-])c2)c2ccccc12 [Compound 204] | 1.6
O=c1[nH]nc(CSc2ccccn2)c2ccccc12 [Compound 91] | 1.4
O=c1[nH]nc(Cc2ccccc2F)c2ccccc12 [Compound 248] | 1.2
O=c1[nH]nc(Cc2cccc(Cl)c2)c2ccccc12 [Compound 186] | 1.6
COc1ccc(Cc2n[nH]c(=O)c3ccccc23)cc1 [Compound 138] | 1.3
COc1cc(Cc2n[nH]c(=O)c3ccccc23)ccc1OCc1ccccc1 [Compound 222] | 1.2
COC(=O)CSCc1n[nH]c(=O)c2ccccc12 [Compound 93] | 1.3
Cn1ccnc1SCc1n[nH]c(=O)c2ccccc12 [Compound 92] | 1.5
O=C(Oc1cccc(Cc2n[nH]c(=O)c3ccccc23)c1)c1ccc(F)cc1 [Compound 212] | 2.3
O=C(Nc1ccccc1)Nc1cccc(Cc2n[nH]c(=O)c3ccccc23)c1 [Compound 215] | 1.4
O=C(O)COCC(=O)Nc1cc(Cc2n[nH]c(=O)c3ccccc23)ccc1N1CCOCC1 [Compound 206] | 1.2
O=c1[nH]nc(Cc2ccccc2F)c2ccccc12 [Compound 141] | 1.6
O=c1[nH]nc(Cc2ccc3c(c2)OCO3)c2ccccc12 [Compound 180] | 1.2
O=C(Nc1cccc(Cc2n[nH]c(=O)c3ccccc23)c1)c1cccs1 [Compound 169] | 1.5
O=c1[nH]nc(Cc2ccncc2)c2ccccc12 [Compound 177] | 1.2

SMILES | DEF (Dose Enhancing Factor)
Cc1ccc(Cc2n[nH]c(=O)c3ccccc23)cc1 [Compound 139] | 1.4
O=c1[nH]nc(Cc2ccc(O)cc2)c2ccccc12 [Compound 164] | 1.3
Cc1ccccc1Cc1n[nH]c(=O)c2ccccc12 [Compound 163] | 1.3
O=C(Nc1ccc(Cc2n[nH]c(=O)c3ccccc23)cc1)c1ccc(F)cc1 [Compound 227] | 2.6
O=c1[nH]nc(Cc2cccc(OCc3ccccc3)c2)c2ccccc12 [Compound 194] | 1.6
O=c1[nH]nc(Cc2ccccc2)c2ccccc12 [Compound 145] | 1.8
O=c1[nH]nc(Cc2cccc(Oc3ccccc3)c2)c2ccccc12 [Compound 193] | 2.2
O=c1[nH]nc(Cc2ccc(Br)cc2)c2ccccc12 [Compound 129] | 1.3
O=c1[nH]nc(Cc2ccc(Cl)cc2)c2ccccc12 [Compound 126] | 1.9
O=c1[nH]nc(Cc2cccc(Br)c2)c2ccccc12 [Compound 211] | 1.4
O=C(Nc1cccc(Cc2n[nH]c(=O)c3ccccc23)c1)c1ccc(F)cc1 [Compound 170] | 2.6
O=c1[nH]nc(Cc2cccc(O)c2)c2ccccc12 [Compound 165] | 1.3
O=c1[nH]nc(Cc2cccc3ccccc23)c2ccccc12 [Compound 131] | 1.3
O=c1[nH]nc(Cc2cccnc2)c2ccccc12 [Compound 178] | 1.9
O=C(Nc1cccc(Cc2n[nH]c(=O)c3ccccc23)c1)c1ccccc1 [Compound 171] | 1.8
CC(=O)Nc1cccc(Cc2n[nH]c(=O)c3ccccc23)c1 [Compound 172] | 1.4
O=c1[nH]nc(Cc2ccc(I)cc2)c2ccccc12 [Compound 151] | 1.9
CC(=O)Nc1ccc(Cc2n[nH]c(=O)c3ccccc23)cc1 [Compound 166] | 1.4
O=c1[nH]nc(Cc2cccc(F)c2)c2ccccc12 [Compound 192] | 1.4
CC(=O)Oc1ccc(Cc2n[nH]c(=O)c3ccccc23)cc1 [Compound 213] | 1.3
Nc1cccc(Cc2n[nH]c(=O)c3ccccc23)c1 [Compound 160] | 1.5
